Results on eight compounds are retold here after ChEMBL document CHEMBL1133932, “Synthesis and biological evaluation of L- and D-configurations of 2',3'-dideoxy-4'-C-methyl-3'-oxacytidine analogues” (Bioorg Med Chem Lett, 2001).

Where only a bound is given, the exact number is not on record here.

Common to all, as to assay type: functional, cell-based
The test system of one assay is CCRF-CEM. Kind of assay: In vitro inhibition of CCRF-CEM lymphoblastic leukemia cell replication by the compound. To be noted: Homo sapiens.
A further assay concerns B16-F10. Kind of assay: In vitro inhibition of B16F10 melanoma cell replication by the compound. To be noted: Mus musculus.
The test system of another assay is P388. In words: In vitro inhibition of P388 leukemia cell replication by the compound. To be noted: Mus musculus.
For assay [1], the system named is L1210. In words: In vitro inhibition of L1210 leukemia cell replication by the compound. To be noted: Mus musculus.
For assay [2], the system named is L1210. In words: In vitro inhibition of L1210 leukemia cell replication by the compound at. To be noted: Mus musculus.

Usually IC50 stands for the point on the concentration scale where inhibition reaches its midpoint. As for `C[C@]1(CO)OCC(n2cc(F)c(N)nc2=O)O1` (some centres not stated), the IC50 in the assay with CCRF-CEM, with B16-F10, in the assay on P388 and with L1210 [1] was above 100 µM throughout.

`CC1(CO)OCC(n2ccc(N)nc2=O)O1` (configuration not stated): the IC50 with CCRF-CEM turned out to be 30 µM; with B16-F10 it was 100 µM; in the assay with P388, 10 µM; in the assay with L1210 [1] it was 50 µM.

Turning to `CC1(CO)OC[C@@H](n2cc(F)c(N)nc2=O)O1` (some centres not stated), the IC50 in the assay on CCRF-CEM, in the assay with B16-F10, with P388 and with L1210 [1] was above 100 µM throughout.

In the case of `CC1(CO)OCC(n2cc(F)c(N)nc2=O)O1` (configuration not stated), the IC50 with CCRF-CEM, with B16-F10, in the assay with P388 and with L1210 [2] was above 100 µM throughout.

For `CC1(CO)OC[C@@H](n2ccc(N)nc2=O)O1` (some centres not stated), the IC50 in the assay with CCRF-CEM, in the assay on B16-F10, with P388 and in the assay with L1210 [1] was above 100 µM in each case.

In the case of `C[C@]1(CO)OCC(n2ccc(N)nc2=O)O1` (some centres not stated), the IC50 is above 100 µM with CCRF-CEM, 100 µM in the assay on B16-F10, above 100 µM with P388 and above 100 µM with L1210 [1].

With `C[C@]1(CO)OCC(n2ccc(N)nc2=O)O1` (single isomer, unassigned), the IC50 in the assay on CCRF-CEM is 30 µM; with B16-F10 it was 100 µM; with P388 it was 5 µM; in the assay on L1210 [1], 45 µM.

Turning to `C[C@]1(CO)OCC(n2cc(F)c(N)nc2=O)O1` (single isomer, unassigned), the IC50 in the assay on CCRF-CEM is above 100 µM; in the assay on B16-F10, above 100 µM; in the assay with P388, 50 µM; with L1210 [1] it was above 100 µM.
